Reference: patent US4686229A, “1,4-dihydropyridines” (Bayer Aktiengesellschaft, priority 1984, dated 1987)

System: synthesis of PGI2
Assay: Prostacyclin stimulation in whole blood (collagen-induced PGI2 formation, 6-keto-PGF1 alpha by radioimmunoassay)
Assay type: cell-based
From the text: The 1,4-dihydropyridines to be used according to the invention also stimulate the synthesis of PGI2. In contrast to thromboxane, which has a vasoconstricting action and initiates platelet aggregation, PGI^2 has a vasodilating action and inhibits platelet aggregation.
The formation of PGI2 can be induced in whole blood by collagen. The endoperoxides formed in platelets are probably converted into PGI2 by […]. The stable end product of the PGI2 conversion, 6-keto-PGF1 α, is determined radioimmunologically.

SMILES	Stimulation (%) (prostacyclin stimulation)
CC1=C(C(=O)OCCCc2cccnc2)C(c2ccc(CO)cc2)C(C(=O)OCCCc2cccnc2)=C(C)N1 [Example 1, Di-3-(pyrid-3-yl)-propyl 1,4-dihydro-4-(4-hydroxymethylphenyl)-2,6-dimethylpyridine-3,5-dicarboxylate]	158%
CC1=C(C(=O)OCCCc2cccnc2)CC(C(=O)OCCCc2cccnc2)=C(C)N1 [Example 4, Di-3-(pyrid-3-yl)-propyl 1,4-dihydro-2,6-dimethylpyridine-3,5-dicarboxylate]	~ 50%
COC(=O)C1C(C(=O)OCCCc2cccnc2)=C(C)NC(C)=C1C(=O)OCCCc1cccnc1 [Example 5, 4-Methyl 3,5-di-3-(pyrid-3-yl)-propyl 1,4-dihydro-2,6-dimethyl-pyridine-3,4,5-tricarboxylate]	100%
CC1=C(C(=O)OCCCc2cccnc2)C(c2ccc(C(=O)NCc3cccnc3)cc2)C(C(=O)OCCCc2cccnc2)=C(C)N1 [Example 10, Di-3-(pyrid-3-yl)-propyl 1,4-dihydro-2,6-dimethyl-4-[4-N-(pyrid-3-ylmethyl)-carbamoylphenyl]-pyridine-3,5-dicarboxylate]	~ 50%
CC1=C(C(=O)OCCCc2cccnc2)C(c2ccc(C(=O)NCc3ccco3)cc2)C(C(=O)OCCCc2cccnc2)=C(C)N1 [Example 11, Di-3-(pyrid-3-yl)-propyl 4-[4-N-(2-furylmethyl)-carbamoylphenyl]-1,4-dihydro-2,6-dimethyl-pyridine-3,5-dicarboxylate]	~ 100%
